Source: patent US7695930B2, “Method for the detection, identification and/or quantification of microoganisms with peptidase activity using phenoxazinone derivatives as enzyme substrates” (Biomerieux, priority 2003, dated 2010)

Assays:
Format in all cases: cell-based
[1] = system: Escherichia coli (NCTC 10418); assay: Alanine peptidase detection, substrates with one to three amino acids (Example 15); design: key to color of the colony: R=pink; RP=pale pink; I=colorless; settings: 50 mg/l
Protocol: (§1) 1000 ml of Columbia medium was melted in a waterbath at 100° C. and autoclaved at 121° C. for 15 min. It was then cooled to 50° C. in a waterbath.
(§2) This medium was separated into 5 flasks of 200 ml, and then, added at 50° C., as substrates, was that of Example 2 for which A is: • medium 1: L-alanine (L-alanine-9-aminobenzo[a]phenoxazin-5-one or A-ABP), • medium 2: L-alanine-L-alanine (L-alanine-L-alanine-9-aminobenzo-[a]phenoxazin-5-one or AA-ABP), • medium 3: L-alanine-L-alanine-L-alanine (L-alanine-L-alanine-L-alanine-9-aminobenzo[a]phenoxazin-5-one or AAA-ABP), • medium 4: L-alanine-glycine (L-alanine-glycine-9-aminobenzo[a]phenoxazin-5-one or AG-ABP), and • medium 5: glycine-L-alanine (glycine-L-alanine-9-aminobenzo[a]phenoxazin-5-one or GA-ABP), each substrate being solubilized in DMSO and used at a final concentration of 50 mg/l.
(§3) The medium was then poured into Petri dishes.
(§4) Nine microorganism strains derived from the Applicant's collection, suspended in physiological saline, were seeded in colonies on the media prepared in point 15.1 above according to a multipoint inoculation in a proportion of 15 000 cfu/spot. The dishes were incubated at 37° C. for 48 hours. The colonies formed were examined visually after incubation for 24 and 48 hours.
(§5) The results are expressed in Tables 7 and 8 hereinafter according to the rules and the nomenclature stated in paragraph 11.3 and where R=pink, RP=pale pink and I=colorless.

[2] = system: Listeria monocytogenes (NCTC 11994); assay: as above; design: key to color of the colony: R=pink; RP=pale pink; I=colorless; settings: 50 mg/l
Protocol: as §1, §2, §3, §4, §5

[3] = system: Acinetobacter baumannii (ATCC 19606); assay: as above; design: key to color of the colony: R=pink; RP=pale pink; I=colorless; settings: 50 mg/l
Protocol: as §1, §2, §3, §4, §5

[4] = system: Pseudomonas aerigunosa (NCTC 10038); assay: as above; design: key to color of the colony: R=pink; RP=pale pink; I=colorless; settings: 50 mg/l
Protocol: as §1, §2, §3, §4, §5

[5] = system: Staphylococcus epidermis (NCTC 11047); assay: as above; design: key to color of the colony: R=pink; RP=pale pink; I=colorless; settings: 50 mg/l
Protocol: as §1, §2, §3, §4, §5

[6] = system: Enterobacter clocae (NCTC 11936); assay: as above; design: key to color of the colony: R=pink; RP=pale pink; I=colorless; settings: 50 mg/l
Protocol: as §1, §2, §3, §4, §5

[7] = system: Micrococcus luteus (NCTC611); assay: as above; design: key to color of the colony: R=pink; RP=pale pink; I=colorless; settings: 50 mg/l
Protocol: as §1, §2, §3, §4, §5

[8] = system: Staphylococcus aureus (NCTC 6571); assay: as above; design: key to color of the colony: R=pink; RP=pale pink; I=colorless; settings: 50 mg/l
Protocol: as §1, §2, §3, §4, §5

[9] = system: Citrobacter freundii; assay: Leucine-peptidase detection on agar medium (Example 11); on color of the colony: key: B corresponds to fluorescent blue; R corresponds to pink
Protocol: (§6) The detection medium was prepared by mixing 1.4 g of biogelytone (bioMérieux), 0.84 g of meat extract (bioMérieux), 2.24 g of NaCl (Merck), 280 μl of a solution of IPTG (isopropylthio-β-D-galactopyranoside, BIOSYNTH) in water (concentration 10 g/l) and 4.2 g of European agar (bioMérieux).
(§7) The substrate of the invention obtained in Example 2, in which the amino acid is leucine (leucine-9-aminobenzo[a]phenoxazin-5-one or Leu-ABP), or else a substrate of the prior art, which is leucine-aminomethylcoumarin (Leu-AMC, BACHEM), was then added in the following way: 280 ml of osmosed water were added to the medium, and the mixture was melted in a waterbath at 100° C. The mixture was autoclaved for 15 min at 121° C. and cooled to 50° C. in a waterbath.
as §3
(§8) The coloration of these colonies, the diffusion, and also the intensity of this coloration were noted.
(§9) The results were expressed as intensity of coloration using an arbitrary scale ranging from 0 to 4 as a basis and also as diffusion also using an arbitrary scale ranging from 0 to 4 as a basis.

[10] = system: Candida albicans; assay: as above; on color of the colony: key: B corresponds to fluorescent blue; R corresponds to pink
Protocol: as §6, §7, §3, §8, §9

How did the “color of the colony” value ([1]; 24 h) turn out when “L-alanyl-9-aminobenzo[a]phenoxazin-5-one [Ala-ABP]” was run?
Its value is “R”.

And the growth diameter ([1]; 24 h)?
Its growth diameter is 3 mm.

And the “color of the colony” value ([1]; 48 h)?
The value was “R”.

What about the growth diameter ([1]; 48 h) of the same substance?
The growth diameter was 3 mm.

What about the “color of the colony” value ([2]; 24 h) of the same substance?
Its value is “I”.

And the growth diameter ([2]; 24 h)?
The growth diameter was 2 mm.

And the “color of the colony” value ([2]; 48 h)?
The value was “R”.

What about the growth diameter ([2]; 48 h) of the same substance?
Its growth diameter is 2 mm.

And the “color of the colony” value ([3]; 24 h)?
The value was “R”.

And the growth diameter ([3]; 24 h)?
Its growth diameter is 3 mm.

And the “color of the colony” value ([3]; 48 h)?
The value was “R”.

And the growth diameter ([3]; 48 h)?
Its growth diameter is 3 mm.

And the “color of the colony” value ([4]; 24 h)?
The value was “R”.

What about the growth diameter ([4]; 24 h) of the same substance?
Its growth diameter is 3 mm.

What about the “color of the colony” value ([4]; 48 h) of the same substance?
The value was “R”.

What about the growth diameter ([4]; 48 h) of the same substance?
The growth diameter was 3 mm.

And the growth diameter ([5]; 24 h)?
The growth diameter was 0 mm.

What about the growth diameter ([5]; 48 h) of the same substance?
The growth diameter was 0 mm.

What about the “color of the colony” value ([6]; 24 h) of the same substance?
Its value is “R”.

And the growth diameter ([6]; 24 h)?
The growth diameter was 3 mm.

What about the “color of the colony” value ([6]; 48 h) of the same substance?
The value was “R”.

And the growth diameter ([6]; 48 h)?
Its growth diameter is 3 mm.

And the growth diameter ([7]; 24 h)?
The growth diameter was 0 mm.

And the growth diameter ([7]; 48 h)?
Its growth diameter is 0 mm.

And the growth diameter ([8]; 24 h)?
The growth diameter was 0 mm.

And the “color of the colony” value ([8]; 48 h)?
Its value is “I”.

And the growth diameter ([8]; 48 h)?
Its growth diameter is 2 mm.

How did the “color of the colony” value ([9]; 24 h, 25 mg/l) turn out when “leucine-9-aminobenzo[a]phenoxazin-5-one [Leu-ABP]” was run?
The value was “R”.

And the growth diameter ([9]; 24 h, 25 mg/l)?
Its growth diameter is 0.7 mm.

And the “intensity of coloration, scale 0 to 4” value ([9]; 24 h, 25 mg/l)?
Its value is 1.5.

And the “color of the colony” value ([9]; 24 h, 50 mg/l)?
The value was “R”.

And the growth diameter ([9]; 24 h, 50 mg/l)?
Its growth diameter is 0.7 mm.

What about the “intensity of coloration, scale 0 to 4” value ([9]; 24 h, 50 mg/l) of the same substance?
Its value is 1.5.

And the “color of the colony” value ([9]; 24 h, 100 mg/l)?
The value was “R”.

And the growth diameter ([9]; 24 h, 100 mg/l)?
Its growth diameter is 0.7 mm.

What about the “intensity of coloration, scale 0 to 4” value ([9]; 24 h, 100 mg/l) of the same substance?
The value was 0.75.

What about the “color of the colony” value ([9]; 24 h, 200 mg/l) of the same substance?
The value was “R”.

And the growth diameter ([9]; 24 h, 200 mg/l)?
Its growth diameter is 0.8 mm.

What about the “intensity of coloration, scale 0 to 4” value ([9]; 24 h, 200 mg/l) of the same substance?
Its value is 1.

What about the “color of the colony” value ([9]; 24 h, 400 mg/l) of the same substance?
Its value is “R”.

What about the growth diameter ([9]; 24 h, 400 mg/l) of the same substance?
Its growth diameter is 0.7 mm.

What about the “intensity of coloration, scale 0 to 4” value ([9]; 24 h, 400 mg/l) of the same substance?
Its value is 2.

And the “color of the colony” value ([9]; 48 h, 25 mg/l)?
Its value is “R”.

And the growth diameter ([9]; 48 h, 25 mg/l)?
The growth diameter was 0.7 mm.

What about the “intensity of coloration, scale 0 to 4” value ([9]; 48 h, 25 mg/l) of the same substance?
Its value is 2.5.

And the “color of the colony” value ([9]; 48 h, 50 mg/l)?
The value was “R”.

And the growth diameter ([9]; 48 h, 50 mg/l)?
The growth diameter was 0.7 mm.

What about the “intensity of coloration, scale 0 to 4” value ([9]; 48 h, 50 mg/l) of the same substance?
Its value is 2.5.

What about the “color of the colony” value ([9]; 48 h, 100 mg/l) of the same substance?
Its value is “R”.

And the growth diameter ([9]; 48 h, 100 mg/l)?
Its growth diameter is 0.7 mm.

And the “intensity of coloration, scale 0 to 4” value ([9]; 48 h, 100 mg/l)?
The value was 1.5.

What about the “color of the colony” value ([9]; 48 h, 200 mg/l) of the same substance?
The value was “R”.

And the growth diameter ([9]; 48 h, 200 mg/l)?
The growth diameter was 0.8 mm.

What about the “intensity of coloration, scale 0 to 4” value ([9]; 48 h, 200 mg/l) of the same substance?
The value was 2.

And the “color of the colony” value ([9]; 48 h, 400 mg/l)?
The value was “R”.

And the growth diameter ([9]; 48 h, 400 mg/l)?
The growth diameter was 0.7 mm.

And the “intensity of coloration, scale 0 to 4” value ([9]; 48 h, 400 mg/l)?
Its value is 2.

What about the growth diameter ([10]; 24 h, 25 mg/l) of the same substance?
Its growth diameter is 0.3 mm.

What about the “color of the colony” value ([10]; 48 h, 25 mg/l) of the same substance?
The value was “R”.

And the growth diameter ([10]; 48 h, 25 mg/l)?
Its growth diameter is 0.5 mm.

What about the “intensity of coloration, scale 0 to 4” value ([10]; 48 h, 25 mg/l) of the same substance?
The value was 0.25.

And the growth diameter ([10]; 48 h, 50 mg/l)?
The growth diameter was 0.3 mm.
